Test results reported in patent publication US20220288038A1, “ABCC11 INHIBITOR” (THE UNIVERSITY OF TOKYO, priority 2019, published 2022).
“Also recorded” adds a separate entry of the source.

Tests used:
[1] = molecular target: T1, human ABCC11 WT (NCBI accession NM_033151) (Homo sapiens, UniProt Q96J66); assay: Inhibition of ABCC11-mediated ATP-dependent [3H]-DHEAS transport into ABCC11-expressing plasma membrane vesicles (vesicle transport assay, rapid filtration); type: biochemical
T1 construct: made in house; host or cells: plasma membrane vesicles from HEK293-derived 293A cells infected with ABCC11-expressing recombinant adenovirus
From the text: (§1) Using an in vitro transport system with ABCC11-expresssing plasma. membrane vesicles (FIG. 1A), we investigated the effect of the test compound on ABCC11 function. To confirm the experimental system, we first examined the time-dependent increase in ATP-dependent dehydroepiandrosterone sulfate (DHEAS)—an ABCC11 substrate (Chen et al., 2005)—transport into the ABCC11-expressing plasma membrane vesicles (FIG. 1B).
(§2) Critical materials and resources used in this study were summarized in Supplementary Table S1. […]
FIG. 1. […] The DHEAS transport into membrane vesicles was measured at the indicated periods with or without ATP; the ATP-dependent DHEAS transport was calculated by subtracting the DHEAS transport activity in the absence of ATP from that in the presence of ATP. Data are expressed as the mean±SD. n=3. […] The DHEAS transport activities were measured in the presence of febuxostat at the indicated concentrations for 5 min. Data are expressed as the mean±SD. n=4. […]
Critical materials and resources used in this study were summarized in Supplementary Table S1. […] After the purification by a CsCl gradient ultracentrifugation method, the adenovirus titer was determined by using an. […]

human ABCC11 = molecular target: T2, human ABCC11 (Homo sapiens, UniProt Q96J66); assay: in vitro DHEAS vesicle transport assay with ABCC11-expressing plasma membrane vesicles; type: biochemical; conditions: ATP-dependent transport of 100 nM [3H]-DHEAS into ABCC11-expressing 293A plasma membrane vesicles, 5 min, 37° C., febuxostat at indicated concentrations
T2 construct: The complete human ABCC11 cDNA; expressed in transfected cells; host or cells: 293A cells (HEK293-derived), adenovirus-infected; plasma membrane vesicles prepared from them
From the text: as §1, §2
Membrane vesicles were prepared from 293A cells infected with the ABCC11-expressing or EGFP-expressing (control) adenovirus as described previously (Toyoda et al., 2017). […] Protein concentration of the plasma membrane vesicles was quantified using a BCA Protein Assay Kit (Pierce, Rockford, Ill., USA) with bovine serum albumin (BSA) as a standard according to the manufacturer's protocol.
Experiments to study the in vitro transport of [1,2,6,7-^3H(N)]-dehydroepiandrosterone sulfate (DHEAS) (Perkin-Elmer Japan, Tokyo, Japan), an ABCC11 substrate (Chen et al., 2005), into ABCC11-expressing and control vesicles were performed by using a rapid filtration technique (Toyoda et al., 2017; Toyoda et al., 2019) with a minor modification. […] Then, the radioactivity derived from the incorporated DHEAS was measured. […]

T2 sequence (Q96J66 whole entry): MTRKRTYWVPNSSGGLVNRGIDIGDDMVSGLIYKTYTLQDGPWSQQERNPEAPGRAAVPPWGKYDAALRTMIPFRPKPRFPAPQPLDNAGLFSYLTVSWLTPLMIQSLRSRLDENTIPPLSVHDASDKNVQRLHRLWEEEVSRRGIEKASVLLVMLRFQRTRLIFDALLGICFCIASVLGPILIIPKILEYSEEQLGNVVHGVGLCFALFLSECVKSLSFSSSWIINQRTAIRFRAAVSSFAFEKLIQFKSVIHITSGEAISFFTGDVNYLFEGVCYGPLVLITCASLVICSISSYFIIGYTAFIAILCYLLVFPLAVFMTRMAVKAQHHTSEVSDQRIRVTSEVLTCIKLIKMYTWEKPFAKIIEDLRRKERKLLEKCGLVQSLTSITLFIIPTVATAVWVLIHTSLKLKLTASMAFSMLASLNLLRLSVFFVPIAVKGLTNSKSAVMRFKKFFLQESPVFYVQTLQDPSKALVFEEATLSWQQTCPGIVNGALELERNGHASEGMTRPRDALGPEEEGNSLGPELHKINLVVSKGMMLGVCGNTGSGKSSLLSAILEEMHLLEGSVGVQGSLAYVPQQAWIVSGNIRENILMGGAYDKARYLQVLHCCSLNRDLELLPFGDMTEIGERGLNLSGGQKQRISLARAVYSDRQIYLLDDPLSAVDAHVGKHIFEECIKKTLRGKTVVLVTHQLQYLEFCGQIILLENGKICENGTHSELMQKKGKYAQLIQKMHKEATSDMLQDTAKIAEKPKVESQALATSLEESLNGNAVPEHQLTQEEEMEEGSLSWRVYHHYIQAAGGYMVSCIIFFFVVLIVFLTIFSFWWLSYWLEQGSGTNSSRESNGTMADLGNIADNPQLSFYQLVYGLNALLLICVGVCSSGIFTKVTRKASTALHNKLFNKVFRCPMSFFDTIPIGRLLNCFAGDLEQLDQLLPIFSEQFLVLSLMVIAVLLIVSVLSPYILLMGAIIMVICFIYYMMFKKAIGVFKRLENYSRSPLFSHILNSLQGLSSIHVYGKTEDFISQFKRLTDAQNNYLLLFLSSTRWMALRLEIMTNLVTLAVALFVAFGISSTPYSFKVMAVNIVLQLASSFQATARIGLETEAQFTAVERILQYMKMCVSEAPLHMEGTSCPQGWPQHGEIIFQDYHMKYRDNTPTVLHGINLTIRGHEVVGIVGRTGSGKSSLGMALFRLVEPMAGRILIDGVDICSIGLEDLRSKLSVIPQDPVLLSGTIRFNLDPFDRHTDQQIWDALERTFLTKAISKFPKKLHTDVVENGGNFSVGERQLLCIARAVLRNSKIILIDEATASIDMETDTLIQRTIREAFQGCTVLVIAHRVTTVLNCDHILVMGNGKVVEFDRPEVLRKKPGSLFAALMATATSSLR
T1 sequence (Q96J66 whole entry): as above

Row | IC50 [1] [µM] | SMILES | inhibition of ABCC11-mediated DHEAS transport (human ABCC11)
1 | 3.26 | Cc1nc(-c2ccc(OCC(C)C)c(C#N)c2)sc1C(=O)O [Febuxostat] | –
2 | – | Cc1nc(-c2ccc(OCC(C)C)c(C#N)c2)sc1C(=O)O [febuxostat] | Dose-dependent inhibition; also recorded: inhibited ABCC11
